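Results reflect a 48-hour exposure of cells in 96-well plates to compound at five concentrations. TGI is the concentration that stops growth completely.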
Columns and labels:
Assay in all cases: growth of human tumour cells (NCI), 48 h
TK-10 renal = tested on: TK-10 renal
SW-620 colon = tested on: SW-620 colon
MOLT-4 leukemia = tested on: MOLT-4 leukemia
HCC-2998 colon = tested on: HCC-2998 colon
SR leukemia = tested on: SR leukemia
ACHN renal = tested on: ACHN renal
HT29 colon = tested on: HT29 colon
CCRF-CEM leukemia = tested on: CCRF-CEM leukemia
MDA-MB-231 breast = tested on: MDA-MB-231 breast
SF-268 CNS = tested on: SF-268 CNS
COLO 205 colon = tested on: COLO 205 colon
CAKI-1 renal = tested on: CAKI-1 renal
SK-MEL-2 melanoma = tested on: SK-MEL-2 melanoma
HL-60(TB) leukemia = tested on: HL-60(TB) leukemia
MCF7 breast = tested on: MCF7 breast
OVCAR-4 ovarian = tested on: OVCAR-4 ovarian
K-562 leukemia = tested on: K-562 leukemia
RXF 393 renal = tested on: RXF 393 renal

SMILES	TGI (TK-10 renal)	TGI (SW-620 colon)	TGI (MOLT-4 leukemia)	TGI (HCC-2998 colon)	TGI (SR leukemia)	TGI (ACHN renal)	TGI (HT29 colon)	TGI (CCRF-CEM leukemia)	TGI (MDA-MB-231 breast)	TGI (SF-268 CNS)	TGI (COLO 205 colon)	TGI (CAKI-1 renal)	TGI (SK-MEL-2 melanoma)	TGI (HL-60(TB) leukemia)	TGI (MCF7 breast)	TGI (OVCAR-4 ovarian)	TGI (K-562 leukemia)	TGI (RXF 393 renal)
COc1ccc(C(c2ccccc2)N2C(=O)CCC2C(=O)O)cc1OC (configuration not stated)	> 100 µM	> 100 µM	> 100 µM	> 100 µM	> 100 µM	> 100 µM	> 100 µM	> 100 µM	> 100 µM	> 100 µM	> 100 µM	> 100 µM	> 100 µM	> 100 µM	> 100 µM	> 100 µM	> 100 µM	–
Cc1c(/C=N\NC(=S)N(C)CCN(C)C(=S)N/N=C\c2c(C)n(C)n(-c3ccccc3)c2=O)c(=O)n(-c2ccccc2)n1C	> 100 µM	> 100 µM	> 100 µM	> 100 µM	> 100 µM	> 100 µM	> 100 µM	–	> 100 µM	> 100 µM	> 100 µM	> 100 µM	> 100 µM	–	–	> 100 µM	–	> 100 µM
CN(C)c1ccc(C=Nc2ccc(-c3nc4ccccc4o3)cc2)cc1	> 100 µM	> 100 µM	78.8 µM	47.3 µM	> 100 µM	> 100 µM	> 100 µM	–	> 100 µM	> 100 µM	> 100 µM	–	83.1 µM	69.1 µM	> 100 µM	> 100 µM	> 100 µM	–
CCOC(=O)C(NC(=O)Nc1ccccc1F)(OC)C(F)(F)F (configuration not stated)	> 100 µM	> 100 µM	> 100 µM	> 100 µM	> 100 µM	> 100 µM	> 100 µM	> 100 µM	–	> 100 µM	> 100 µM	> 100 µM	> 100 µM	> 100 µM	–	–	> 100 µM	> 100 µM
CC1(C)O[C@@H]([C@@H](O)[C@H](O)C2SCCCS2)[C@@H](CO)O1	> 100 µM	> 100 µM	> 100 µM	–	–	> 100 µM	> 100 µM	> 100 µM	> 100 µM	> 100 µM	> 100 µM	> 100 µM	> 100 µM	> 100 µM	–	–	> 100 µM	> 100 µM
COc1ccc(-c2c(C(=O)Nc3ccccc3)c(-c3ccccc3)n(C3OC(CO)C(O)C(O)C3O)c(=S)c2C#N)cc1 (configuration not stated)	–	> 100 µM	> 100 µM	> 100 µM	> 100 µM	> 100 µM	> 100 µM	> 100 µM	–	> 100 µM	> 100 µM	> 100 µM	–	> 100 µM	> 100 µM	> 100 µM	> 100 µM	> 100 µM
CC1=NN(c2ccccc2Cl)C2(C1)SCC(=O)N2c1nc2ccccc2s1 (configuration not stated)	> 100 µM	> 100 µM	–	> 100 µM	–	> 100 µM	> 100 µM	–	> 100 µM	> 100 µM	> 100 µM	> 100 µM	> 100 µM	–	> 100 µM	> 100 µM	> 100 µM	> 100 µM
CCOP(=O)(OCC)OC1CC(n2cnc3c(N(CC)CC)ncnc32)OC1CO[Si](C)(C)C(C)(C)C (configuration not stated)	33 µM	35.2 µM	30.7 µM	43.8 µM	> 100 µM	28.8 µM	35 µM	41.2 µM	–	31.5 µM	32.8 µM	31.5 µM	45.6 µM	> 100 µM	39.8 µM	29.5 µM	57.6 µM	32.3 µM
c1ccc2c(-c3ccnc(-c4c[nH]c5ccccc45)n3)c[nH]c2c1	> 100 µM	25.9 µM	5.84 µM	–	19.4 µM	> 100 µM	7.33 µM	3.32 µM	–	> 100 µM	> 100 µM	74.6 µM	> 100 µM	30.8 µM	54.2 µM	> 100 µM	> 100 µM	–
CCCNc1c(Cl)cc(Cl)c2[nH]c3ccccc3c(=O)c12	> 100 µM	> 100 µM	> 100 µM	> 100 µM	> 100 µM	> 100 µM	> 100 µM	> 100 µM	> 100 µM	–	> 100 µM	> 100 µM	> 100 µM	47.6 µM	> 100 µM	> 100 µM	> 100 µM	–
N#CCCN(CCC#N)c1ccc(/C=C2\N=C(c3ccccc3)N(NC(=O)c3ccncc3)C2=O)cc1	> 100 µM	> 100 µM	> 100 µM	–	–	> 100 µM	> 100 µM	–	> 100 µM	> 100 µM	> 100 µM	–	> 100 µM	> 100 µM	> 100 µM	> 100 µM	> 100 µM	> 100 µM
CC(C)Cn1cnnc1NS(=O)(=O)c1cc(C(=O)NN)c(Cl)cc1S	> 10 µM	> 10 µM	> 10 µM	> 10 µM	–	> 10 µM	> 10 µM	> 10 µM	> 10 µM	> 10 µM	> 10 µM	> 10 µM	> 10 µM	> 10 µM	> 10 µM	> 10 µM	> 10 µM	> 10 µM
COc1cccc2c(=O)c3c(O)c4cc(N(C)C)ccc4c(OC(C)=O)c3oc12	29.3 µM	22.4 µM	40.5 µM	32.5 µM	–	32.8 µM	27.1 µM	13.8 µM	25 µM	68.4 µM	17.8 µM	16.9 µM	46.9 µM	14.2 µM	61.7 µM	32 µM	97.4 µM	18.6 µM
COc1ccc2c(c1)OCC1Cc3cccc(OC)c3OC21 (configuration not stated)	> 100 µM	> 100 µM	80.7 µM	> 100 µM	> 100 µM	–	> 100 µM	> 100 µM	> 100 µM	> 100 µM	> 100 µM	> 100 µM	> 100 µM	–	–	–	–	–
CCOC(=O)CC(=O)Nc1c(C(=O)OCC)sc2nc(SC)nc(Nc3ccc(OC)c(OC)c3)c12	> 100 µM	> 100 µM	–	> 100 µM	–	> 100 µM	> 100 µM	> 100 µM	> 100 µM	> 100 µM	> 100 µM	> 100 µM	> 100 µM	> 100 µM	> 100 µM	> 100 µM	–	25.1 µM
